# Laboratory results published in patent publication US12594276B2, “Inhibitors of human immunodeficiency virus replication” (ViiV Healthcare UK (No.5) Limited, priority 2024, dated 2026).
# Read-outs that look alike come from different tables or passages of the source.
# Legend:
# [1] = tested on: recombinant NL4-3 virus (nef section replaced with Renilla luciferase gene) in MT-2 cells; test: HIV cell culture assay (antiviral activity, luciferase readout); format: cell-based; conditions: Renilla, NL43, MT-2 cells infected for 4-5 days with recombinant NL4-3 Renilla luciferase virus
# Procedure: HIV cell culture assay—MT-2 cells, 293T cells and the proviral DNA clone of NL4-3 virus were obtained from the NIH AIDS Research and Reference Reagent Program. MT-2 cells were propagated in RPMI 1640 media supplemented with 10% heat inactivated fetal bovine serum (FBS), […]. The 293T cells were propagated in DMEM media supplemented with 10% heat inactivated FBS, […]. A recombinant NL4-3 proviral clone, in which a section of the nef gene was replaced with the Renilla luciferase gene, was used to make the reference virus used in these studies. The recombinant virus was prepared through transfection of the recombinant NL4-3 proviral clone into 293T cells using Transit-293 Transfection Reagent from Mirus Bio LLC (Madison, WI). Supernatant was harvested after 2-3 days and the amount of virus present was titered in MT-2 cells using luciferase enzyme activity as a marker by measuring luciferase enzyme activity. Luciferase was quantitated using the EnduRen Live Cell Substrate from Promega (Madison, WI). Antiviral activities of compounds toward the recombinant virus were quantified by measuring luciferase activity in MT-2 cells infected for 4-5 days with the recombinant virus in the presence of serial dilutions of the compound.
# The 50% effective concentration (EC50) was calculated by using the exponential form of the median effect equation where (Fa)=1/[1+(ED50/drug conc.)m](Johnson V A, Byington R T. Infectivity Assay. In Techniques in HIV Research. ed. Aldovini A, Walker B D. 71-76. New York: Stockton Press. 1990). Curve fitting and analysis were performed with ActivityBase XE Runner software version 9.1.0.4 using model 203 (ID Business Solutions, LTD, Guildford, UK).
# [2] = Compound cytotoxicity, XTT-based colorimetric assay; format: cell-based; conditions: human
# Procedure: Compound cytotoxicity and the corresponding CC50 values were determined using the same protocol as described in the antiviral assay except that uninfected cells were used. Cytotoxicity was assessed on day 4 in uninfected MT2 cells by using an XTT (2,3-bis[2-Methoxy-4-nitro-5-sulfophenyl]-2H-tetrazolium-5-carboxyanilide inner salt)-based colorimetric assay (Sigma-Aldrich, St Louis, Mo).
# [3] = uninfected MT2 cells, day 4, XTT, read-out: CC50
Compound,EC50 [1] [pM],"CC50 at 4 days [2, 3] [nM]",CC50 at 4 days [2] [nM]
"C[C@@H]1CN(CCn2nc(NS(C)(=O)=O)c3c(Cl)ccc(-n4c([C@H](Cc5cc(F)cc(F)c5)NC(=O)Cn5nc(C(F)F)c6c5C(F)(F)[C@@H]5C[C@H]65)nc5nc(C6CCC(F)(F)CC6)ccc5c4=O)c32)CCO1 (atropisomer, axis not shown; (P)) [Example 360]",10,> 50,
"COCCCn1nc(NS(C)(=O)=O)c2c(Cl)ccc(-n3c([C@H](Cc4cc(F)cc(F)c4)NC(=O)Cn4nc(C(F)F)c5c4C(F)(F)[C@@H]4C[C@H]54)nc4nc(C5CCC(F)(F)CC5)cc(NC[C@H]5CCOC5)c4c3=O)c21 (atropisomer, axis not shown; (P)) [Example 567, N-[(1S)-1-[(3P)-3-[4-chloro-3-methanesulfonamido-1-(3-methoxypropyl)-1H-indazol-7-yl]-7-(4,4-difluorocyclohexyl)-4-oxo-5-({[(3R)-oxolan-3-yl]methyl}amino)-3H,4H-pyrido[2,3-d]pyrimidin-2-yl]-2-(3,5-difluorophenyl)ethyl]-2-[(2S,4R)-9-(difluoromethyl)-5,5-difluoro-7,8-diazatricyclo[4.3.0.0^2,^4]nona-1(6),8-dien-7-yl]acetamide]",9,> 20,
"CS(=O)(=O)Nc1nn(CCN2CCC(F)CC2)c2c(-n3c([C@H](Cc4cc(F)cc(F)c4)NC(=O)Cn4nc(C(F)F)c5c4C(F)(F)[C@@H]4C[C@H]54)nc4nc(C5CCC(F)(F)CC5)cc(C(F)F)c4c3=O)ccc(Cl)c12 (atropisomer, axis not shown; (P)) [Example 370, N-[(1S)-1-[(3P)-3-{4-chloro-1-[2-(4-fluoropiperidin-1-yl)ethyl]-3-methanesulfonamido-1H-indazol-7-yl}-7-(4,4-difluorocyclohexyl)-5-(difluoromethyl)-4-oxo-3H,4H-pyrido[2,3-d]pyrimidin-2-yl]-2-(3,5-difluorophenyl)ethyl]-2-[(2S,4R)-9-(difluoromethyl)-5,5-difluoro-7,8-diazatricyclo[4.3.0.0^2,^4]nona-1(6),8-dien-7-yl]acetamide]",9,> 20,
"Cc1cc(C2(F)CCC(F)(F)CC2)nc2nc([C@H](Cc3cc(F)cc(F)c3)NC(=O)Cn3nc(C(F)F)c4c3C(F)(F)[C@@H]3C[C@H]43)n(-c3ccc(Cl)c4c(NS(C)(=O)=O)nn(C[C@@H](C)N5C[C@@H](C)O[C@@H](C)C5)c34)c(=O)c12 (atropisomer, axis not shown; (P)) [Example 720, N-[(1S)-1-[(3P)-3-{4-chloro-1-[(2R)-2-[(2R,6S)-2,6-dimethylmorpholin-4-yl]propyl]-3-methanesulfonamido-1H-indazol-7-yl}-5-methyl-4-oxo-7-(1,4,4-trifluorocyclohexyl)-3H,4H-pyrido[2,3-d]pyrimidin-2-yl]-2-(3,5-difluorophenyl)ethyl]-2-[(2S,4R)-9-(difluoromethyl)-5,5-difluoro-7,8-diazatricyclo[4.3.0.0^2,^4]nona-1(6),8-dien-7-yl]acetamide]",7,> 20,
"COCCOCCn1nc(NS(C)(=O)=O)c2c(Cl)ccc(-n3c([C@H](Cc4cc(F)cc(F)c4)NC(=O)Cn4nc(C(F)F)c5c4C(F)(F)[C@@H]4C[C@H]54)nc4nc(C5CCC(F)(F)CC5)ccc4c3=O)c21 (atropisomer, axis not shown; (P)) [Example 241, N-[(1S)-1-[(3P)-3-{4-chloro-3-methanesulfonamido-1-[2-(2-methoxyethoxy)ethyl]-1H-indazol-7-yl}-7-(4,4-difluorocyclohexyl)-4-oxo-3H,4H-pyrido[2,3-d]pyrimidin-2-yl]-2-(3,5-difluorophenyl)ethyl]-2-[(2S,4R)-9-(difluoromethyl)-5,5-difluoro-7,8-diazatricyclo[4.3.0.0^2,^4]nona-1(6),8-dien-7-yl]acetamide]",18,> 50,
"COCCCn1nc(NS(C)(=O)=O)c2c(Cl)ccc(-n3c([C@H](Cc4cc(F)cc(F)c4)NC(=O)Cn4nc(C(F)F)c5c4C(F)(F)[C@@H]4C[C@H]54)nc4nc(C5CCC(F)(F)CC5)cc(CN5CC(F)(F)C5)c4c3=O)c21 (atropisomer, axis not shown; (P)) [Example 538, N-[(1S)-1-[(3P)-3-[4-chloro-3-methanesulfonamido-1-(3-methoxypropyl)-1H-indazol-7-yl]-5-[(3,3-difluoroazetidin-1-yl)methyl]-7-(4,4-difluorocyclohexyl)-4-oxo-3H,4H-pyrido[2,3-d]pyrimidin-2-yl]-2-(3,5-difluorophenyl)ethyl]-2-[(2S,4R)-9-(difluoromethyl)-5,5-difluoro-7,8-diazatricyclo[4.3.0.0^2,4]nona-1(6),8-dien-7-yl]acetamide]",7,> 20,
"Cc1cc(C2(F)CCC(F)(F)CC2)nc2nc([C@H](Cc3cc(F)cc(F)c3)NC(=O)Cn3nc(C4CC4)c4c3C[C@@H]3C[C@H]43)n(-c3ccc(Cl)c4c(NS(C)(=O)=O)nn(C[C@@H](C)N5C[C@H](F)C[C@H](F)C5)c34)c(=O)c12 (relative stereo) [Example 702, N-[(1S)-1-[(3P)-3-{4-chloro-1-[(2R)-2-[(3R,5S)-3,5-difluoropiperidin-1-yl]propyl]-3-methanesulfonamido-1H-indazol-7-yl}-5-methyl-4-oxo-7-(1,4,4-trifluorocyclohexyl)-3H,4H-pyrido[2,3-d]pyrimidin-2-yl]-2-(3,5-difluorophenyl)ethyl]-2-[(2R*,4R*)-9-cyclopropyl-7,8-diazatricyclo[4.3.0.0^2,^4]nona-1(6),8-dien-7-yl]acetamide]",16,> 20,
"COCCCn1nc(NS(C)(=O)=O)c2c(Cl)ccc(-n3c([C@H](Cc4cc(F)cc(F)c4)NC(=O)Cn4nc(C5CC5)c5c4C[C@@H]4C[C@H]54)nc4nc(C5(F)CCC(F)(F)CC5)cc(CN5C[C@@H](C)O[C@@H](C)C5)c4c3=O)c21 (atropisomer, axis not shown; (P)) [Example 602, N-[(1S)-1-[(3P)-3-[4-chloro-3-methanesulfonamido-1-(3-methoxypropyl)-1H-indazol-7-yl]-5-{[(2R,6S)-2,6-dimethylmorpholin-4-yl]methyl}-4-oxo-7-(1,4,4-trifluorocyclohexyl)-3H,4H-pyrido[2,3-d]pyrimidin-2-yl]-2-(3,5-difluorophenyl)ethyl]-2-[(2S,4S)-9-cyclopropyl-7,8-diazatricyclo[4.3.0.0^2,^4]nona-1(6),8-dien-7-yl]acetamide]",17,> 20,
"Cc1cc(C2(F)CCC(F)(F)CC2)nc2nc([C@H](Cc3cc(F)cc(F)c3)NC(=O)Cn3nc(C4CC4)c4c3C[C@@H]3C[C@H]43)n(-c3ccc(Cl)c4c(NS(C)(=O)=O)nn(CCN5CC6CC(C5)O6)c34)c(=O)c12 [Example 591, N-[(1S)-1-[(3P)-3-[4-chloro-3-methanesulfonamido-1-(2-{6-oxa-3-azabicyclo[3.1.1]heptan-3-yl}ethyl)-1H-indazol-7-yl]-5-methyl-4-oxo-7-(1,4,4-trifluorocyclohexyl)-3H,4H-pyrido[2,3-d]pyrimidin-2-yl]-2-(3,5-difluorophenyl)ethyl]-2-[(2S,4S)-9-cyclopropyl-7,8-diazatricyclo[4.3.0.0^2,^4]nona-1(6),8-dien-7-yl]acetamide]",6,,> 20
"Cc1cc(C2(F)CCC(F)(F)CC2)nc2nc([C@H](Cc3cc(F)cc(F)c3)NC(=O)Cn3nc(C(F)F)c4c3C(F)(F)[C@@H]3C[C@H]43)n(-c3ccc(Cl)c4c(NS(C)(=O)=O)nn(CCN5CCOCC5(C)C)c34)c(=O)c12 (atropisomer, axis not shown; (P)) [Example 579, N-[(1S)-1-[(3P)-3-{4-chloro-1-[2-(3,3-dimethylmorpholin-4-yl)ethyl]-3-methanesulfonamido-1H-indazol-7-yl}-5-methyl-4-oxo-7-(1,4,4-trifluorocyclohexyl)-3H,4H-pyrido[2,3-d]pyrimidin-2-yl]-2-(3,5-difluorophenyl)ethyl]-2-[(2S,4R)-9-(difluoromethyl)-5,5-difluoro-7,8-diazatricyclo[4.3.0.0^2,^4]nona-1(6),8-dien-7-yl]acetamide]",11,> 20,
